Data published in a melting point compilation (Tetko et al.; mined from patent text by program, amines drawn as free bases though some values may be those of a salt).

Work on `COC(=O)c1cc(C(=O)OC)cc(-c2cc(C(F)(F)F)cc(C(F)(F)F)c2)c1` yielded a melting point of 151 °C. Work on `CCCCCCCCSc1nc(SCCCCCCCC)nc(-c2cc(C)c(O)c(C)c2)n1` yielded a melting point of 75 to 76 °C. Work on `CCOC(=O)c1cc2c(=O)n(C(C)C)c3ccccc3n2c1` yielded a melting point of 169 to 170 °C. With `COc1ccc(C=CC(=O)O)cc1-c1cc2c(cc1OCCCCCCCC(N)=O)C(C)(C)CCC2(C)C` the melting point was 132 to 134 °C. Work on `CC(=O)Nc1nc(-c2ccc(CCC(=O)O)cc2)c(Cc2ccc(S(C)(=O)=O)cc2)s1` yielded a melting point of 208 to 210 °C. With `O=C1CCC2(CCC(=O)N2c2ccc(Cc3ccc(N4C(=O)CCC45CCC(=O)O5)cc3)cc2)O1` (centres undefined) the melting point was 135 °C. In the case of `CC(C)CC1(CC(=O)NOCc2ccccc2)CC(=O)N(CCc2ccccc2)C1=O` (centres undefined), the melting point is reported as 115 to 117 °C. Compound `C=CCc1nc(SC)nc2ccccc12` has a melting point of 133 to 135 °C. `C=CCNC(=S)NC(=O)c1ccccc1` showed a melting point of 68 to 69 °C. Work on `Clc1cccc(-c2nnnn2Cc2cscn2)c1Cl` yielded a melting point of 153 to 154 °C. Work on `COC(=O)COc1ccc(C(C)=O)c(O)c1` yielded a melting point of 101 to 103 °C. Work on `CN1NC=CC1c1ccc(C(=O)N2Cc3cccn3Cc3ccccc32)c(Cl)c1` (centres undefined) yielded a melting point of 78 to 79 °C. `Cc1nc2c3c(ccn2c1C)C(=O)[C@H](OC(=O)C(C)(C)C)[C@@H](c1ccccc1)N3` gave a melting point of 185 to 187 °C. Work on `O=C(O)C(CC1CC2CCN1CC2)(c1ccccc1)c1ccccc1` (centres undefined) yielded a melting point of 180 to 185 °C. In the case of `O=c1[nH]c2c(Cl)cccc2c(=O)n1CCCN1CC=C(c2cccc(C(F)(F)F)c2)CC1`, the melting point is reported as 205 to 210 °C. With `COc1cc(COc2cc(N)c(Cl)cc2C(=O)CCCCN2CCCCCC2)cc(OC)c1` the melting point was 137 to 139 °C. With `Nc1nc2[nH]c(CCCCc3ccc(C(=O)N[C@@H](CCC(=O)O)C(=O)O)s3)cc2c(=O)[nH]1` the melting point was 179 to 180 °C. `Fc1ccc2[nH]cc(C3=CCN(CC4COc5ccc6ncccc6c5O4)CC3)c2c1` (centres undefined) showed a melting point of 184 °C. Work on `COc1cc2[nH]c(=O)c(-c3csc(-c4ccncc4)n3)c(N)c2cc1OC` yielded a melting point greater than 250 °C. Compound `O=C(Cc1c[nH]c2ccccc12)Nc1ccccc1C(=O)Nc1ccccc1` has a melting point of 235 to 236 °C. `Cc1cc(NC(=O)C(C)(O)COc2cccc(C#N)c2)ccc1[N+](=O)[O-]` (centres undefined) showed a melting point of 107 to 110 °C. With `O=C(CN1C2=NCCN2c2ccccc21)c1ccccc1` the melting point was 178 to 179 °C. For `CCOc1ccc(C=CC(=O)c2c(OCC)cc(OCC)cc2OC(=O)CC)cc1`, the melting point was 84.5 °C. Work on `CCOC(=O)CC[C@H](NC(=O)c1ccc(CN(C=O)CC2CNc3nc(NC(=O)C(C)(C)C)nc(O)c3C2)cc1)C(=O)OCC` (some centres undefined) yielded a melting point of 149 to 151 °C. Work on `CN(C)CC#Cc1ccc(C(CC2CCCC2)C(=O)Nc2nccs2)cc1` (centres undefined) yielded a melting point of 164 to 167 °C. `CCOc1cccc(CN2CCc3cc(O)c(OC)cc3C2)c1` showed a melting point of 105 to 106 °C. Work on `CCC(=O)N1CCC(NC(=O)Nc2ccc(Br)cc2)CC1` yielded a melting point of 233 to 239 °C. For `OCCOc1ccc(-n2cncn2)cc1`, the melting point was 151 to 152 °C. For `Nc1scc2c(C(=O)O)nn(-c3ccc(Cl)cc3)c(=O)c12`, the melting point was greater than 300 °C. `Cn1cccc1C(=O)Nc1cccc(C=CC(=O)N2CC(CCl)c3ccc([N+](=O)[O-])cc32)c1` (centres undefined) gave a melting point of 215 °C. `O=C(Nc1cccc2ccccc12)OCCCC(O)c1ccccc1` (centres undefined) gave a melting point of 92 °C. With `CC1(c2cccs2)Cc2cc(OCC(=O)O)c(Cl)c(Cl)c2C1=O` (centres undefined) the melting point was 161 to 162 °C. `CCCCCCCCCCCCCCCCCCOc1ccc(O)c(C(=O)OC)c1` gave a melting point of 53 to 54 °C. `CCCCCCCCCCCCCCCCCCNC(=O)SCC(COCc1ccccc1)OC` (centres undefined) showed a melting point of 40 to 41 °C. For `CCCCCCCCCCCCCCC(OC)C(=O)OC` (centres undefined), the melting point was 28.6 to 30.6 °C. With `CCC(=S)Nc1c(SC(F)(F)F)c(C#N)nn1-c1c(Cl)cc(C(F)(F)F)cc1SC` the melting point was 153 to 155 °C. `Cc1nc(N)ccc1-c1ccncc1` showed a melting point of 207 to 209 °C. `COc1ccc(C(=O)O)c(Oc2ccc(C(F)(F)F)cc2NC(=O)Nc2cc(C(F)(F)F)cc(C(F)(F)F)c2)c1` showed a melting point of 248 °C. For `OCC1CCn2c(nc3ccccc32)S1` (centres undefined), the melting point was 112 to 113 °C. Work on `NNC(=O)c1cccc2nnsc12` yielded a melting point of 270 to 272 °C. Work on `CSC(=NCCN1CCC(c2noc3cc(F)ccc23)CC1)NC#N` yielded a melting point of 148 to 151 °C. `CCCCCCCCCCCCCCOc1ccc(C(=O)N(Cc2cccnc2)C(C)=O)cc1` showed a melting point of 46 to 48 °C. For `c1cc(N2CCOCC2)ccn1`, the melting point was 93 to 95 °C. `Cc1cc(Br)cnc1CCCCNN1Cc2ccccc2S(=O)(=O)N1` gave a melting point of 187 to 188 °C. `Nc1ncccc1C(=O)NCC1CCN(C[C@H]2COc3cccc(Cl)c3O2)CC1` showed a melting point of 62 to 70 °C. `CN(C)c1ccc(C(=O)CC(=O)C(C)(C)C)cc1` gave a melting point of 61.5 to 61.8 °C. `COC(=O)c1cn(-c2ccccc2Oc2ccc(C)cc2O)nn1` gave a melting point of 153 to 155 °C. `CS(=O)(=O)c1ccc(-n2cncc2-c2ccc(F)cc2F)cc1` gave a melting point of 119 °C. Compound `O=C1CCSc2c(O)cccc21` has a melting point of 225 to 232 °C. In the case of `COc1ccc(-c2cc(=O)c3ccc(OCC(O)CNC(C)C)cc3o2)cc1OC` (centres undefined), the melting point is reported as 144 to 145 °C. `CCCCCCCCNC(=O)CSc1nc(Cl)cc(Nc2cccc(C)c2C)n1` gave a melting point of 144 to 146 °C. Work on `O=C(C[C@@H](O)C(=O)O)c1ccccc1` yielded a melting point of 128 to 131 °C. Work on `CC(C)CCN1N=C(c2ccc(F)cc2)c2cc(F)ccc2CS1(=O)=O` yielded a melting point of 130 to 133 °C. Compound `CCCCCC(C)N(Cc1ccc(OCCC(C)C)cc1)C(Nc1ccc(OC)cc1OC)=C1C(=O)COC1=O` (centres undefined) has a melting point of 125 to 127 °C. Work on `O=C(O)c1nccnc1C(=O)Nc1ccc(Cl)cn1` yielded a melting point of 222 °C. With `NS(=O)(=O)c1cccc(-c2cn(-c3nc(-c4ccc(Cl)cc4)cc(C(F)(F)F)n3)cn2)c1` the melting point was 225 °C. Work on `CC(C)(C)c1cc(CCc2cc(CO)cc(CCc3cc(C(C)(C)C)cc(C(C)(C)C)c3)c2)cc(C(C)(C)C)c1` yielded a melting point of 101 °C. `O=C(CCCCOc1ccc(-c2ccccc2)cc1)NO` gave a melting point of 152 to 154 °C. With `CCOC(=O)C(=Cc1ccc(OC)cc1OC)C(=O)OCC` the melting point was 40 to 41 °C. Compound `N[C@@H]1C[C@H]2CC[C@@H]1N(c1cc3c(cc1F)c(=O)c(C(=O)O)cn3C1CC1)C2` has a melting point of 267 to 270 °C. `Cc1oc(-c2ccccc2)nc1CCOc1ccc(C#N)cc1` gave a melting point of 119 to 120 °C. In the case of `Nc1nc(-n2cc(C(=O)O)c(=O)c3c(N)c(F)c(F)c(Cl)c32)c(F)cc1F`, the melting point is reported as 280 °C. For `CCOc1ccc(S(=O)(=O)N2CCN(C)CC2)cc1C(=O)O`, the melting point was 201 °C. Compound `Cc1ccc(-n2nc(OC(=O)c3ccccc3)c3c(c2=O)Cc2ccc(Cl)cc2N3)cc1` has a melting point of 248 to 250 °C. Work on `CCCCCCOc1ccc(C(=O)O)cc1Cl` yielded a melting point of 140 °C. In the case of `OCc1csc(N2CCSCC2)n1`, the melting point is reported as 83 to 84 °C. Compound `CCOP(=O)(OCC)c1ccc(Oc2ccccc2[N+](=O)[O-])cc1` has a melting point of 150 °C. Work on `CC(O)CNc1c(F)cc2c(=O)c(C(=O)O)cn(-c3cc(N)c(F)cc3F)c2c1Cl` (centres undefined) yielded a melting point of 225 to 226 °C. In the case of `C#CCN1N=C(c2ccc(OC)c(OC)c2)[C@@H]2CCCC[C@@H]2C1=O` (relative stereo), the melting point is reported as 118 to 121 °C. For `COC1CCC2C3CCC4CC(OC(=O)C(C)C)CCC4(C)C3CCC12C` (centres undefined), the melting point was 82 to 87 °C. In the case of `Cc1nc(NC(=O)c2ccc(C#N)cc2)sc1C(=O)NCc1ccccc1`, the melting point is reported as 256 to 258 °C. With `CCOC(=O)C(C#N)(Cc1ccc(OC)c(OC)c1)C(OCC)OCC` (centres undefined) the melting point was 62 to 65 °C. For `Cc1ccc(N2C(=O)C(O)=C(C(=O)c3ccc(C(C)C)cc3)C2c2ccc(OC(C)C)nc2)nn1` (centres undefined), the melting point was 282 °C. With `CCOC(=O)C(=CC1(OC)C=C2OCOC2=CC1)C(=O)OCC` (centres undefined) the melting point was 118 °C. Compound `CCOC(=O)Cn1c(=O)sc2cc(-c3ccccc3)c(Cl)cc21` has a melting point of 130 to 131 °C. With `CC(N=Cc1ccc(O)cc1)c1ccc(Br)cc1` (single isomer, unassigned; (-)) the melting point was 156 to 161 °C. For `COC(=O)C=Cc1ccc(OCc2nc(-c3ccco3)oc2C)c(OC)c1`, the melting point was 129 to 130 °C. With `Cc1cc(=O)n2nc(-c3ccc(F)cc3)c(-c3ccncc3)c2[nH]1` the melting point was greater than 280 °C. In the case of `CCCN=C(NC#N)NCCSCc1[nH]cnc1C`, the melting point is reported as 108 to 110 °C. Work on `OCCNCc1nnc2n1-c1ccc(Cl)cc1C(c1ccccc1)=NC2` yielded a melting point of 162 to 164 °C. Work on `CCCCCCCCNC(=O)n1nc(Oc2ncc(C(F)(F)F)cc2Cl)c(Cl)c1C` yielded a melting point of 61 to 62 °C. `COC(=O)CC(C)C(=O)c1ccc2c(c1)OCC(=O)N2` (centres undefined) gave a melting point of 95 to 98 °C. `O=C1C(=O)c2ccc(-c3ccccc3)cc2C2=C1SCC1(CCNCC1)O2` showed a melting point of 83 to 87 °C. `CCc1[nH]n(C2CCCC2)c2nc(-c3ccc4c(c3)CCO4)nc(=O)c1-2` gave a melting point of 253 to 254 °C. `Cc1c(CC2CCc3cc4ccccc4n3C2=O)ncn1Cc1ccccc1` (centres undefined) showed a melting point of 130 to 140 °C. `CC(=O)c1ccc2c(c1)CCCN2C(=O)c1ccc(-c2ccc(Cl)cc2)cc1` gave a melting point of 149 to 151 °C. `NC(=O)n1ccc(-c2ccc(Sc3ccc(F)cc3)cc2)n1` gave a melting point of 150 to 155 °C. With `CCSc1cc(C)nc(SCC)c1NC(=O)CCCCCCCCSc1nc2ccccc2o1` the melting point was 84 to 87 °C. With `CN(N=Cc1c[nH]c2ccccc12)c1cc(N2CCOCC2)nc(OCCc2ccccn2)n1` the melting point was 130 to 140 °C. Compound `CC(=O)SCC(=O)c1cc(S(=O)(=O)N(C)C)ccc1Cl` has a melting point of 84 to 88 °C. `CN1CCN(c2c(F)c(F)c3c(=O)c(C(=O)O)cn(C4CC4)c3c2F)CC1` showed a melting point of 245 °C. `O=C(OCc1ccccc1)c1ccc(O)cc1O` gave a melting point of 83 to 88 °C. In the case of `CCCOc1nsc(NC(=O)C(C)C)c1C#N`, the melting point is reported as 220 to 221 °C. `O=C(c1ccccc1)N1CCNc2ncc(-c3cccnc3)cc21` showed a melting point of 219 to 220 °C. Work on `CC(C)c1ccc(S(=O)(=O)n2c(CCCC(=O)O)cc3cc(Cl)ccc32)cc1` yielded a melting point of 148 °C. `CNC(=O)C(=NOC)c1cccc(Cl)c1COc1ccc(Sc2ccc(C)cc2)cn1` gave a melting point of 100 to 102 °C. `CCOC(=O)c1c(C)nc(NN=C(C)C)c2nnn(CC)c12` showed a melting point of 68 to 72 °C. In the case of `CC(C)(N)COC(=O)CCc1cc(C(C)(C)C)c(O)c(C(C)(C)C)c1`, the melting point is reported as 97 to 99 °C. `O=C(Oc1ccccn1)c1cc2cc(CCl)ccc2oc1=O` showed a melting point of 125 to 129 °C.
